This is an account of results in paper PMC6449605, “Pyrophosphate Stimulates the Phosphate-Sodium Symporter of Trypanosoma brucei Acidocalcisomes and Saccharomyces cerevisiae Vacuoles” (mSphere, 2019).

The target of one assay is T1, Pho91p (Saccharomyces cerevisiae, UniProt P27514).
T1 construct: gene PHO91; full length, cRNA expressed in Xenopus laevis oocytes
T1 sequence (P27514 1-894): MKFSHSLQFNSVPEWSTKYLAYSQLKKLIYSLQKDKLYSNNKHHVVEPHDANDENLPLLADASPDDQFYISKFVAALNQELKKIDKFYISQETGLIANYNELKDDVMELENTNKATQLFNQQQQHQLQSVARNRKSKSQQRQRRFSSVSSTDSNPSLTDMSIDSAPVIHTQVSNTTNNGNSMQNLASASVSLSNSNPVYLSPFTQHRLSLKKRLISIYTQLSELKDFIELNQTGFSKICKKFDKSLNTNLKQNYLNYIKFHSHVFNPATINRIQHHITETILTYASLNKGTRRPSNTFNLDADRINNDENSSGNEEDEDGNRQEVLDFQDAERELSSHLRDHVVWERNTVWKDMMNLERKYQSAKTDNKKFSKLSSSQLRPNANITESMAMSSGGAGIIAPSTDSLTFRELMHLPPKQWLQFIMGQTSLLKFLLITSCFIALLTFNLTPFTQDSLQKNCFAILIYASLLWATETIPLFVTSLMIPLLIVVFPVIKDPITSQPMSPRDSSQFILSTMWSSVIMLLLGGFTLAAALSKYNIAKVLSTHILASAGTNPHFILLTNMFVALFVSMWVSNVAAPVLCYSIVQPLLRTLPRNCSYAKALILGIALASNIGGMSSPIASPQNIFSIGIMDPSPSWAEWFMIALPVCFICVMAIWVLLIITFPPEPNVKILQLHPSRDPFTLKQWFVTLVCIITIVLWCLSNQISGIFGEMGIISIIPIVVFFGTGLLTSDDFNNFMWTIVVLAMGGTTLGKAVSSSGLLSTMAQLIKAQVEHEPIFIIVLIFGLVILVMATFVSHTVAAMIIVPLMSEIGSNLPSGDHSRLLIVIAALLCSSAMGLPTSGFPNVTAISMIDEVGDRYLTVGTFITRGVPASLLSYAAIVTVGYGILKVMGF
Briefly: two-electrode voltage clamp, Xenopus oocytes. In kind it is cell-based. The settings on record: ND96, room temperature. On the technique in general: In two-electrode clamp one electrode senses voltage and the other passes current.

For another assay, the target named is T2, TbPho91 (Trypanosoma brucei, UniProt Q383G2).
T2 construct: full length, cRNA expressed in Xenopus laevis oocytes (also in giant vacuoles of pho91-delta yeast)
As to the kind of experiment: two-electrode voltage clamp, Xenopus oocytes. The settings on record: activator, modulates 10 mM Pi-evoked current; ND96 pH 7.5; room temperature. In kind it is cell-based.

T2 sequence (Q383G2 1-728): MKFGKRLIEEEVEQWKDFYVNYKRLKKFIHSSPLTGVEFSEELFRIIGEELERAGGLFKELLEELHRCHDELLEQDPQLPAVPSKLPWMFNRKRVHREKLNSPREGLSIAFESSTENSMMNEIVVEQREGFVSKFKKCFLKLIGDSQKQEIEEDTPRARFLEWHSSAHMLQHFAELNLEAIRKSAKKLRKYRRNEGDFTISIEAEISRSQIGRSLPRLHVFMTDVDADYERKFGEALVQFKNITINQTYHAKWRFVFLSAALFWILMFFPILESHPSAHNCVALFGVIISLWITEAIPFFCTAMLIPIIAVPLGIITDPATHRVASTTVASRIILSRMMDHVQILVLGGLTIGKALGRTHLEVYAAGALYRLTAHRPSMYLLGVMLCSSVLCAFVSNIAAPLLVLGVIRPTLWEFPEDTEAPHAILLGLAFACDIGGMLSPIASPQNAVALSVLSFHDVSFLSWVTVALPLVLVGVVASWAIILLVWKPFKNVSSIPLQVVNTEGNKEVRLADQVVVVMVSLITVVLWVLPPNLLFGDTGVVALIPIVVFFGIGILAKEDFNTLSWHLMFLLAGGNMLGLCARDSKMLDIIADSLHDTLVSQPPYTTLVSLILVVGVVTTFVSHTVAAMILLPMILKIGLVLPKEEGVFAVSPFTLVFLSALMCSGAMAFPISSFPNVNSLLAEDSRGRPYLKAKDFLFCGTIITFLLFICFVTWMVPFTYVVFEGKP

Take `O=P(O)(O)OP(=O)(O)O` [PPi]: the “inward current amplitude at 10 mM” value at Pho91p (activator, 10 mM Na+/PPi) is 447.8 ± 84.1 nA. Regarding `O=P(O)(O)O` [Pi], at Pho91p (10 mM Na+/Pi, Na+ co-transported), the “inward current amplitude at 10 mM” value is listed as 146.8 ± 41.6 nA. As for `O=P(O)(O)OP(=O)(O)OP(=O)(O)O` [polyP3], the “inward current amplitude at 10 mM” value on Pho91p (activator, 10 mM Na+/polyP3) is 771.6 ± 168.4 nA. The “threshold for significant amplification of Na+/Pi current” value on TbPho91 was 200 µM.
